Experimental data reported in patent publication US8557845B2, “Substituted pyrrolo-pyrazole derivatives as kinase inhibitors” (Nerviano Medical Sciences S.R.L., priority 2002, dated 2013).

molecular target: Cdk2/Cyclin A (Homo sapiens, UniProt P24941); assay: Inhibition assay of Cdk2/Cyclin A activity (SPA, IC50); assay type: biochemical; details: tested against Cdk2/Cyclin A
Method: The inhibiting activity of putative Cdk/Cyclin inhibitors and the potency of selected compounds was determined through a method of assay based on the use of the SPA technology (Amersham Pharmacia Biotech).
The assay consists of the transfer of radioactivity labelled phosphate moiety by the kinase to a biotinylated substrate. The resulting 33P-labelled biotinylated product is allowed to bind to streptavidin-coated SPA beads (biotin capacity 130 pmol/mg), and light emitted was measured in a scintillation counter.
Inhibition Assay of Cdk2/Cyclin A Activity
4 μM in house biotinylated histone H1 (Sigma #H-5505) substrate, 10 μM ATP (0.1 microCi P^33γ-ATP), 4.2 ng Cdk2/Cyclin A complex, inhibitor in a final volume of 30 μl buffer (TRIS HCl 10 mM pH 7.5, MgCl2 10 mM, DTT 7.5 mM+0.2 mg/ml BSA) were added to each well of a 96 U bottom. After 30 min at r.t. incubation, reaction was stopped by 100 μl PBS+32 mM EDTA+0.1% Triton X-100+500 μM ATP, containing 1 mg SPA beads. Then a volume of 110 μl is transferred to Optiplate.
After 20 min. incubation for substrate capture, 100 μl 5M CsCl were added to allow statification of beads to the top of the plate and let stand 4 hours before radioactivity counting in the Top-Count instrument.
inhibitors were tested at different concentrations ranging from 0.0015 to 10 μM. Experimental data were analyzed by the computer program GraphPad Prizm using the four parameter logistic equation: y=bottom+(top−bottom)/(1+10^((log IC50−x)*slope)) where x is the logarithm of the inhibitor concentration, y is the response; y starts at bottom and goes to top with a sigmoid shape.

IC50 [nM] | Structure (SMILES)
1700 | CC(=O)N1Cc2c(NC(=O)c3cccc(Br)c3)n[nH]c2C1(C)C [Reference Compound, N-[5-acetyl-6,6-dimethyl-4,6-dihydropyrrolo[3,4-c]pyrazol-3-yl]-(3-bromo)benzamide, reference compound]
30 | CC(C)(C)C(=O)N1Cc2c(NC(=O)c3ccc(F)cc3)n[nH]c2C1(C)C [Compound 1, N-[5-(2,2-dimethylpropanoyl)-6,6-dimethyl-1,4,5,6-tetrahydropyrrolo[3,4-c]pyrazol-3-yl]-4-fluorobenzamide]
25 | CC(C)(C)C(=O)N1Cc2c(NC(=O)c3ccc(F)cc3)n[nH]c2C12CC2 [Compound 2, N-[5-(2,2-dimethylpropanoyl)-1,4,5,6-tetrahydropyrrolo[3,4-c]pyrazol-6-spirocyclopropan-3-yl]-4-fluorobenzamide]
